What is called IC50 is the concentration that inhibits the measured activity by half. What is called CC50 is the concentration that lowers cell viability or growth by half.

Consider 5 molecules from patent US20260250325A1, “Antiviral Polypeptide Membrane Fusion Inhibitor, and Preparation Method and Application Thereof” (priority 2025, published 2026).

Where two headings read alike, the source gives them in different places. Where a SMILES comes first, the peptide text is derived from it.

One data set has as its system RSV A long virus strain. It counts as cell-based. On the procedure:
In this embodiment, an RSV-A long virus strain was used as an infection virus in the present disclosure. The anti-RSV activity of the synthesized polypeptide was determined through CPE detection.
The inhibitory activity of the compounds of Table 1-1-Table 1-5, positive polypeptide in Table 1-11, and positive control T-118 against the RSV-A long virus strain was detected.
(§1) Human Epithelial Pharyngeal Carcinoma Cells (HEp-2) were from the American Type Culture Collection (ATCC), with a catalog number CCL-23. The cells were cultured in a DMEM culture solution in which 10% fetal bovine serum, 1% sodium pyruvate, 1% nonessential amino acids, 2 mM glutamine, 100 U/mL penicillin, and 100 μg/mL streptomycin were added. The RSV A long virus strain was from the ATCC, with a catalog number VR-26.
This study used a plaque reduction experiment to detect the in-vitro activity of a test sample against the RSV A long virus strain. The test sample and a control compound were tested at 8 concentrations in duplicated wells. The HEp-2 cells were digested with trypsin and then diluted to a concentration of 300,000 cells per milliliter by using an experimental culture solution. The diluted cells were added to a 96-well cell test board, with 100 μL per well, corresponding to 30000 cells per well. The cells were cultured overnight in a 37° C. incubator with 5% CO2. On the second day, the test sample was diluted in an experimental culture medium at a fold ratio. The sample diluted at a fold ratio and an equal volume of virus (100 PFU per well) were well mixed and incubated at 37° C. in 5% CO2 for 1 h. Then, the culture solution in the 96-well cell test board was discarded, the sample virus mixed solution (200 μL) was added to the 96-well cell culture plate, and incubated at 37° C. in 5% CO2 for 2 hours. After 2 h, the sample virus mixed solution was discarded, and 200 μL of maintenance culture medium containing 0.8% CMC and the corresponding concentration of the test sample was added. A cell control (cells, without compound treatment or viral infection) and a viral control (cell infection virus, without compound treatment) were set. The cells were cultured for 1 day in the 37° C. incubator with 5% CO2. One day after viral infection, the culture medium was discarded, the cells were fixed with 4% paraformaldehyde, and then permeabilization was performed with 0.5% Triton X-100. After the plate was washed with DPBS, an RSV-specific antibody (RSV antibody, diluted 1:3000) was added and incubated at 37° C. for 1 h. Then, a secondary antibody (donkey anti-goat IgG, diluted 1:500) and incubated at 37° C. for 1 h. The secondary antibody was discarded, a TrueBlue solution was added, dyeing was performed for 10 min; and the plate was washed with running water and then air-dried, and the number of spots in each well was counted by using a microplate imaging counter. Raw data was used for calculating the antiviral activity of the samples.
(§2) The raw data for plaque counts and cell viability tests were used for analyzing the antiviral activity and cytotoxicity of the test samples, respectively. A calculation formula was shown as follows.
% inhibition rate=100−(sample value-cell control average value)/(virus control average value-cell control average value)×100%
(§3) Non-linear fitting analysis was performed on the inhibition rate of the sample by using GraphPad Prism (version 10), so as to calculate the IC50 and CC50 values for the sample.
IC50: in an in-vitro antiviral activity experiment, IC50 represented an inhibition ability indicator of a compound to be tested against the Hep-2 cells infected by the RSV A long virus strain.

The nature of data set [1]: Cytotoxicity test in HEp-2 cells (CCK8 cell viability). It counts as cell-based. The note with it: human. Here is the method:
as §1
A cytotoxicity test and an antiviral test were performed in parallel. The HEp-2 cells were inoculated in the microplate at a density of 30,000 cells per well, and cultured overnight in the 37° C. incubator with 5% CO2. On the next day, the diluted test sample was added. The cell control (cells, without compound treatment) and a culture solution control (culture solution only, without cell or compound treatment) were set. A final concentration of DMSO in the culture solution was 0.5%. The cells were cultured for 1 day in the 37° C. incubator with 5% CO2. Cell viability was detected by using a cell viability detection kit CCK8.
as §2
cell survival rate=(sample value-culture medium control average value)/(cell control average value-culture medium control average value)×100
as §3
CC50: in the in-vitro antiviral activity experiment, CC50 was used to measure the toxicity of the compound to be tested to the Hep-2 cells. To be precise, when the compound to be tested was at a specific concentration, 50% of the Hep-2 cells was caused to die, and this concentration was defined as the CC50. A fitting formula was log (inhibitor) vs. response-Variable slope (four parameters).

[2] abbreviates: RSV A long virus strain, HEp-2 cells, plaque reduction, 1 day, read-out: IC50.
[3] abbreviates: HEp-2 cells, CCK8, 1 day, read-out: CC50.

`CC[C@H](C)[C@H](NC(=O)[C@H](CCCCN)NC(=O)[C@H](CC(C)C)NC(=O)[C@H](CC(C)C)NC(=O)[C@H](CO)NC(=O)[C@H](C)NC(=O)[C@H](CC(=O)O)NC(=O)[C@H](Cc1ccccc1)NC(C)=O)C(=O)N[C@@H](CCC(=O)O)C(=O)N[C@@H](CCC(=O)O)C(=O)N[C@@H](CCC(=O)O)C(=O)N[C@@H](CCCCN)C(=O)N[C@@H](CCCCN)C(=O)N[C@@H](CCCCN)C(=O)N[C@H](C(=O)N[C@@H](CCC(=O)O)C(=O)N[C@@H](CCC(=O)O)C(=O)N[C@@H](CC(C)C)C(=O)N[C@@H](CC(C)C)C(=O)N[C@@H](CCCCN)C(=O)N[C@@H](CC(C)C)C(=O)N[C@@H](Cc1c[nH]cn1)C(=O)N[C@@H](CC(N)=O)C(=O)N[C@@H](CCC(=O)O)C(=O)N[C@@H](CO)C(=O)N[C@@H](CC(=O)O)C(=O)N[C@@H](CCCCN)C(=O)N[C@@H](CCCCN)C(=O)N[C@@H](CC(C)C)C(=O)N[C@@H](CCC(=O)O)C(=O)N[C@@H](CCC(=O)O)C(=O)N[C@H](C(N)=O)C(C)C)[C@@H](C)CC` [Compound 4] (Ac-FDASLLKIEEEKKKIEELLKLHNESDKKLEEV-NH2) returned an IC50 with RSV A long virus strain greater than 8 µM. Also, the CC50 at 1 day in data set [1] is greater than 8 µM.
Regarding `CC[C@H](C)[C@H](NC(=O)[C@H](CCCCN)NC(=O)[C@H](CCCCN)NC(=O)[C@H](CC(C)C)NC(=O)[C@H](CO)NC(=O)[C@H](CCC(=O)O)NC(=O)[C@H](CCC(=O)O)NC(=O)[C@@H](NC(=O)[C@H](CCCCN)NC(=O)[C@H](CCCCN)NC(=O)[C@H](CC(N)=O)NC(=O)[C@@H](NC(=O)[C@H](CCC(=O)O)NC(=O)[C@H](CCC(=O)O)NC(=O)[C@@H](NC(=O)[C@H](CCCCN)NC(=O)[C@H](CCCCN)NC(=O)[C@H](CC(=O)O)NC(=O)[C@H](Cc1ccccc1)NC(=O)[C@H](CCC(=O)O)NC(=O)[C@H](CC(=O)O)NC(=O)[C@H](Cc1c[nH]c2ccccc12)NC(C)=O)[C@@H](C)CC)C(C)C)[C@@H](C)CC)C(=O)N[C@@H](CCC(=O)O)C(=O)N[C@@H](CCC(=O)O)C(=O)N[C@@H](CO)C(=O)N[C@@H](CC(=O)O)C(=O)N[C@@H](CCCCN)C(=O)N[C@@H](CCCCN)C(=O)N[C@@H](CC(C)C)C(=O)N[C@@H](CCC(=O)O)C(=O)N[C@@H](CCC(=O)O)C(=O)N[C@H](C(=O)N[C@@H](CC(N)=O)C(=O)N[C@@H](CCCCN)C(=O)N[C@@H](CCCCN)C(=O)N[C@@H](CC(C)C)C(N)=O)C(C)C` [Compound 5] (Ac-WDEFDKKIEEVNKKIEESLKKIEESDKKLEEVNKKL-NH2), the IC50 in the data set with RSV A long virus strain (setting [2]) is 1.12 µM. Further, in data set [1] (setting [3]), the CC50 at 1 day was greater than 8 µM.
For `CC[C@H](C)[C@H](NC(=O)[C@H](CO)NC(=O)[C@H](CCC(=O)O)NC(=O)[C@H](CC(N)=O)NC(=O)[C@@H](NC(=O)[C@H](CCCCN)NC(=O)[C@H](CO)NC(=O)[C@H](CO)NC(=O)[C@H](C)NC(=O)[C@H](CC(=O)O)NC(=O)[C@H](CC(N)=O)NC(=O)[C@@H](NC(=O)[C@H](CCC(=O)O)NC(=O)[C@H](CC(C)C)NC(=O)[C@H](CCCNC(=N)N)NC(=O)[C@H](Cc1ccccc1)NC(=O)[C@H](C)NC(=O)[C@H](CC(=O)O)NC(=O)[C@H](C)NC(C)=O)C(C)C)[C@@H](C)CC)C(=O)N[C@@H](CCC(=O)O)C(=O)N[C@@H](CCC(=O)O)C(=O)N[C@@H](CO)C(=O)N[C@@H](CC(C)C)C(=O)N[C@@H](CC(C)C)C(=O)N[C@@H](CO)C(=O)N[C@@H](CC(C)C)C(=O)N[C@@H](CCC(=O)O)C(=O)N[C@@H](CCCCN)C(=O)N[C@@H](CC(C)C)C(=O)N[C@@H](Cc1c[nH]cn1)C(=O)N[C@@H](CC(N)=O)C(=O)N[C@H](C(=O)N[C@@H](CC(N)=O)C(=O)N[C@@H](C)C(=O)N[C@H](C(=O)N[C@@H](C)C(N)=O)[C@@H](C)O)C(C)C` [Compound 6] (Ac-ADAFRLEVNDASSKINESIEESLLSLEKLHNVNATA-NH2), the 50% inhibitory concentration (IC50) in the data set with RSV A long virus strain is greater than 8 µM. The same molecule yielded a CC50 at 1 day in data set [1] greater than 8 µM.
`CC[C@H](C)[C@H](NC(=O)[C@H](Cc1ccccc1)NC(=O)[C@H](C)NC(=O)[C@H](CC(=O)O)NC(=O)[C@H](Cc1ccccc1)NC(C)=O)C(=O)N[C@@H](CCC(N)=O)C(=O)N[C@@H](CCC(=O)O)C(=O)N[C@H](C(=O)N[C@@H](CC(N)=O)C(=O)N[C@H](C(=O)N[C@@H](CC(N)=O)C(=O)N[C@@H](CCC(=O)O)C(=O)N[C@@H](CC(=O)O)C(=O)N[C@@H](CCC(N)=O)C(=O)N[C@@H](CO)C(=O)N[C@@H](CC(C)C)C(=O)N[C@@H](CCC(=O)O)C(=O)N[C@@H](CCC(N)=O)C(=O)N[C@@H](CO)C(=O)N[C@@H](CC(=O)O)C(=O)N[C@@H](CCC(=O)O)C(=O)N[C@@H](CC(C)C)C(=O)N[C@@H](CC(C)C)C(=O)N[C@@H](CC(C)C)C(=O)N[C@@H](CCC(=O)O)C(=O)N[C@@H](CC(C)C)C(=O)N[C@@H](Cc1c[nH]cn1)C(=O)N[C@@H](CC(C)C)C(=O)N[C@@H](CC(C)C)C(=O)N[C@@H](Cc1c[nH]cn1)C(=O)N[C@@H](CO)C(=O)N[C@@H](CC(C)C)C(=O)N[C@@H](CC(C)C)C(=O)N[C@@H](Cc1c[nH]cn1)C(N)=O)C(C)C)[C@@H](C)CC` [Compound 7] (Ac-FDAFIQEINVNEDQSLEQSDELLLELHLLHSLLH-NH2) displayed an IC50 with RSV A long virus strain greater than 8 µM. Also, the CC50 at 1 day in data set [1] is greater than 8 µM.
For the molecule `CC[C@H](C)[C@H](NC(=O)[C@H](CCC(=O)O)NC(=O)[C@H](CCC(=O)O)NC(=O)[C@H](CC(C)C)NC(=O)[C@H](CO)NC(=O)[C@H](CCC(=O)O)NC(=O)[C@H](CCC(=O)O)NC(=O)[C@@H](NC(=O)[C@H](CCCCN)NC(=O)[C@H](CCC(=O)O)NC(=O)[C@H](CC(N)=O)NC(=O)[C@@H](NC(=O)[C@H](CCC(N)=O)NC(=O)[C@H](CC(N)=O)NC(=O)[C@@H](NC(=O)[C@H](CCCCN)NC(=O)[C@H](CCC(N)=O)NC(=O)[C@H](CC(N)=O)NC(=O)[C@H](Cc1ccccc1)NC(=O)[C@H](CCC(=O)O)NC(=O)[C@H](C)NC(=O)[C@H](Cc1ccccc1)NC(C)=O)[C@@H](C)CC)C(C)C)[C@@H](C)CC)C(=O)N[C@@H](CCCNC(=N)N)C(=O)N[C@@H](CCCCN)C(=O)N[C@@H](CO)C(=O)N[C@@H](CC(=O)O)C(=O)N[C@@H](CCC(=O)O)C(=O)N[C@@H](CCC(=O)O)C(=O)N[C@@H](CC(C)C)C(=O)N[C@@H](Cc1c[nH]cn1)C(=O)N[C@@H](CC(N)=O)C(=O)N[C@H](C(=O)N[C@@H](CC(N)=O)C(=O)N[C@@H](C)C(=O)N[C@H](C(=O)N[C@H](C(N)=O)[C@@H](C)O)[C@@H](C)O)C(C)C` [Compound 8] (Ac-FAEFNQKINQVNEKIEESLEEIRKSDEELHNVNATT-NH2), in the data set on RSV A long virus strain (setting [2]), the IC50 was determined as 3.77 µM. Moreover, in data set [1] (setting [3]), the cytotoxic concentration (CC50) at 1 day was greater than 8 µM.
